From patent publication US20100069302A1, “SPECIFIC THERAPY AND MEDICAMENT USING INTEGRIN LIGANDS FOR TREATING CANCER” (priority 2007, published 2010)
Several values for one entry are separate records, joined by “and”; a condition that tells them apart may be missing. Identical values can stand only once. Entries after “also recorded” stand apart in the source; their conditions may differ.

Columns and labels:
[1] = system: patients with recurrent glioblastoma (GBM); test: Phase IIa trial of cilengitide single agent therapy in patients with recurrent glioblastoma; assay type: in vivo, human
Description: Background: The present phase IIa study was designed to evaluate the safety, toxicity, and clinical activity of the cyclic RGD pentapeptide cilengitide ((=cyclo-(Arg-Gly-Asp-DPhe-NMe-Val)), an inhibitor of integrins αvβ3 and αvβ5, as a single agent at doses of 500 and 2000 mg in patients (pts) with recurrent glioblastoma (GBM).
Methods: In this multicenter, open-label, randomized, uncontrolled study, pts with GBM and measurable disease that had relapsed after previous therapy with temozolomide and radiotherapy were randomized to receive cilengitide at doses of either 500 mg or 2000 mg i.v., 2×/week, until progression.
Histopathology diagnosis and MRI imaging were subject to independent blinded review. The primary endpoint was Progression Free Survival (PFS) at 6 months (mths). Secondary endpoints included response, survival, time to disease progression, safety, tolerability and pharmacokinetics.

[2] = system: NSCLC (A549); test: Proliferation assay (vitronectin-coated plates, Alamar Blue); assay type: cell-based; settings: A549, 72 hours; concentration held constant in combination with chemotherapeutic agents; read-out: constant EC50 concentration of alpha V integrin blocker
Description: A549-DMEM containing 10% FCS (heat-inactivated) plus 2 mM glutamine,
(§1) Briefly, 2.5×10e4 cells/well in RPMI containing 0.5% BSA and 25 mM Hepes pH 7.4 attached to non-tissue culture treated 96-well plates coated with serially diluted vitronectin, fibronectin, fibrinogen and collagen I for 60 minutes at 37° C. After washing to remove unbound cells the relative cell number is determined by incubation with hexosaminidase substrate. The colormetric reaction is read at 405 nm in a Genios plate reader (SLT). Proliferation assay Non-tissue cultures treated 96 well plates are coated using 100 ul/well of a 2 ug/ml vitronectin solution in PBS incubated overnight at 4° C. Cells are plated at 5×10e3 in 100 ul cell culture medium (as described above for each cell line). […] Plates are incubated for 72 hours, after which relative cell number is determined by the addition of 20 ul/well Alamar Blue (Resazurin) (Nakayama et al. 1997). After 4 hours of incubation at 37° C. relative fluorescent intensity is read in a Genios plate reader (SLT) at 535/590 nm (excitation/emission).
(§2) Points are run in triplicate. Reagent blanks, containing media plus colormetric reagent without cells, are run on each plate. Blank values are subtracted from test values and are routinely 5-10% of uninhibited control values. […]

[3] = system: U251 human glioblastoma cells; test: Rat orthotopic glioblastoma model radiotherapy, cilengitide scheduling experiments; assay type: in vivo, NIH mu nude rats; settings: for Days Post Implant (survival): listed as Rt + EMD, 4 mg/kg
Description: NIH mu nude rats are anaesthetized, restrained, and injected intracerebrally 1 mm retro orbitally, 3 mm to the right of the bregma and at a depth of 2.5 mm with 5×10E5 U251 human glioblastoma cells suspended in 10 ul of culture medium, using a #2701 Hamilton syringe fitted with a 26 gauge needle, essentially as previously described (Engebraaten et al., 1999). After 14 days, cilengitide (4 mg/kg) is given as an intraperitoneal bolus in PBS, at various time (8 h, 4 h, 2 h, 1 h) prior to a single treatment with single, collimated, dorsal-ventral beam of 6 MV x-rays, so that 95-100% of the central axis dose of 25 Gy hit the tumor volume (Kim et al., 1999). Each of the 7 subsequent days the animals also received an identical i.p. bolus of cilengitide. The animals are maintained under ad libitum food and drink until they become moribund, or are sampled for tissue analysis (in the t-4 and t-8 h groups, where the animals are healthy past 230 days post tumor injection). A Kaplan-Meier survival curve is calculated and plotted (FIG. 1) from the raw data (Table 1). All animals in the RT monotherapy group died by 120 d.

[4] = system: various brain tumors; settings: cited from earlier work
[5] = system: patients with newly diagnosed glioblastoma (GBM); test: Phase I/IIa trial of cilengitide and temozolomide with concomitant radiotherapy, then maintenance, in newly diagnosed glioblastoma; assay type: in vivo, human
Description: Patients and methods: Fifty-two pts (PS 0-1: 92%, 2: 8%; median age 57 yrs) after biopsy (n=9/17%) or tumor resection (n=43/83%) were treated with standard TMZ/RT (Stupp et al. NEJM 2005). In addition Cilengitide (500 mg i.v., 2×/week) was started one week before TMZ/RT and given throughout for the duration of chemotherapy or until progression. Primary endpoint was progression free survival rate at 6 months (target: 65%). Patients were followed with MRI every 2 months. Histopathologic diagnosis and MRI imaging were independently reviewed, MGMT promoter methylation status was assessed in 45 (86.5%) pts.

[6] = system: Endothelial Cells (HUVEC); test: Proliferation assay (vitronectin-coated plates, Alamar Blue); assay type: cell-based; settings: 72 hours, concentration held constant in combination with chemotherapeutic agents, read-out: constant EC50 concentration of alpha V integrin blocker
Description: HUVEC-DMEM containing 10% FCS (heat-inactivated) plus 2 mM glutamine and 1 mM sodium pyruvate.
as §1, §2

## CC(C)[C@H]1C(=O)N[C@@H](CCCN=C(N)N)C(=O)NCC(=O)N[C@@H](CC(=O)O)C(=O)N[C@H](Cc2ccccc2)C(=O)N1C [Cilengitide, cyclo-(Arg-Gly-Asp-DPhe-NMeVal)]
[1]; 500 mg arm, i.v. 2x/week
  median Overall Survival (mOS): 6.5 mths
[1]; 2000 mg 2x/week versus 500 mg, not statistically significant
  tumor control, dose comparison: trend towards better tumor control
[1]; 2000 mg arm, i.v. 2x/week
  12 mth overall survival (OS) rate: 37.5%
  median Overall Survival (mOS): 9.9 mths
[1]; at 500 mg, each in 1 patient
  Treatment related NCI CTC grade 3 adverse events: elevated liver enzymes; also recorded: arthralgia/myalgia
[1]; at 2000 mg, in 1 patient
  Treatment related NCI CTC grade 3 adverse events: weight increase/edema
[1]; both arms
  grade 4 therapy related AEs: No grade 4 therapy related AEs
[1]; both arms, 10 pts (n=4 with 500 mg, n=6 with 2000 mg), 1 cycle=4 weeks
  pts who received 12 or more cycles of therapy: 12.3%
[1]; both arms, six pts, at time abstract was issued
  pts still progression-free and on treatment: 7.4%
[1]; possibly related either to the drug or to the disease
  cerebral hemorrhage: One CTC grade 2 cerebral hemorrhage
[1]; recurrent glioblastoma
  single agent activity: advantageous single agent activity
[1]; single agent therapy at two dose levels
  tolerability: tolerated well
[2]
  EC50: 6 nM
[3]; cilengitide bolus 4 mg/kg i.p. 1 hour pre-irradiation (Rt 25 Gy) plus 7 daily boluses, all Sick (moribund)
  Days Post Implant (survival): 112 days and 113 days and 130 days and 141 days
[3]; cilengitide bolus 4 mg/kg i.p. 2 hours pre-irradiation (Rt 25 Gy) plus 7 daily boluses, all Sick (moribund)
  Days Post Implant (survival): 120 days and 147 days and 162 days and 196 days
[3]; cilengitide bolus 4 mg/kg i.p. 4 hours pre-irradiation (Rt 25 Gy) plus 7 daily boluses, Healthy/Alive animals not dead at day shown
  Days Post Implant (survival): 238 days and 254 days
[3]; cilengitide bolus 4 mg/kg i.p. 8 hours pre-irradiation (Rt 25 Gy) plus 7 daily boluses, Healthy/Alive animals not dead at day shown
  Days Post Implant (survival): 287 days and 257 days
[3]; t-4 and t-8 h groups, cilengitide 4 mg/kg plus 25 Gy
  animals healthy, days post tumor injection: > 230 days
[4]; human, in vivo
  MTD in humans: no known MTD
  tolerability: very well tolerated
[4]; in some of the GBM patients
  response: an indication of response was seen
[5]; Cilengitide 500 mg plus TMZ/RT, 5/52
  haematological grade 3 and 4 toxicity: neutropenia: 9.6%
[5]; Cilengitide 500 mg plus TMZ/RT, n=3/52
  Treatment related non-hematologic grade 3 toxicities, patients: 5.7%
[5]; Cilengitide 500 mg plus TMZ/RT, subgroup with methylated MGMT promoter (23/52)
  PFS-6 rate: 91%
[5]; combination of Cilengitide and TMZ/RT
  tolerability: well tolerated
[5]; one patient with a history of sigmoid diverticulosis
  other adverse event: sigmoid perforation (grade 2)
[6]
  EC50: 0.2 nM
